Each structure is given as a SMILES string.

We go through 20 molecules from patent US20220298107A1, “SUBSTITUTED UREA DIHYDROOROTATE DEHYDROGENASE INHIBITORS” (Janssen Biotech, Inc., priority 2019, published 2022).

Test [1] has as its system MOLM-13 cells. Put plainly: MOLM-13 Cellular Assay. The format is cell-based. The conditions noted are these: Homo sapiens, MOLM-13, 72 h, read-out: MOLM-13 Cellular Assay EC50 (nM). On the procedure: MOLM-13 cells were obtained from DSMZ and were maintained in RPMI 1640+Glutamax+25 mM HEPES (Invitrogen, catalog number 72400) supplemented with 10% heat inactivated fetal bovine serum (FBS; Invitrogen, catalog number 16140). The day prior to assay set-up, cells were pelleted, resuspended in fresh media, counted, and cells were plated at 0.4×10^6 cell/mL in a T150 flask. On the day of the assay, cells were pelleted, resuspend in fresh media, counted and seeded at 5,000 cells/well in white opaque 96-well tissue culture treated microplates (Perkin Elmer, catalog number 6005680). Cells were exposed to different concentrations of test compounds at 37° C., 5% CO2 for 72 hours immediately after seeding. Cell viability was acquired on a Perkin Elmer Envision 2104 multilabel reader using the CellTiter-Glo assay (Promega) according to the manufacturer's instructions.

In test [2] the target is human DHODH (Homo sapiens, UniProt Q02127). Put plainly: biochemical. The protocol: To detect DHODH enzyme activities, dichloroindophenol (DCIP) is added as the final electron acceptor in the assay. DCIP can accept electrons from the reduced coenzyme Q generated in the assay, or from dihydroorotate (DHO) via flavin mononucleotide (FMN) by binding presumably to the ubiquinone pocket. […] The assay buffer contained […], pH 7.5, 150 mM NaCl, 0.5 mM EDTA, and 0.1% Triton X-100 in MilliQ water. Substrate consisting of 20 mM DHO, 5 mM CoQ6, and 1 mM DCIP in assay buffer, initiates the reaction. […] Absorbance measurements were obtained using the BMG Phera Star plate-reading spectrophotomer. Purified human DHODH was purchased from Proteros (cat. No. PR-0044). Chemicals were purchased from Sigma-Aldrich, Teknova, and Avanti Polar Lipids. Liquid handling was performed using Labcyte Echo and Formulatrix Tempest.
Sequence of human DHODH (Q02127 whole entry): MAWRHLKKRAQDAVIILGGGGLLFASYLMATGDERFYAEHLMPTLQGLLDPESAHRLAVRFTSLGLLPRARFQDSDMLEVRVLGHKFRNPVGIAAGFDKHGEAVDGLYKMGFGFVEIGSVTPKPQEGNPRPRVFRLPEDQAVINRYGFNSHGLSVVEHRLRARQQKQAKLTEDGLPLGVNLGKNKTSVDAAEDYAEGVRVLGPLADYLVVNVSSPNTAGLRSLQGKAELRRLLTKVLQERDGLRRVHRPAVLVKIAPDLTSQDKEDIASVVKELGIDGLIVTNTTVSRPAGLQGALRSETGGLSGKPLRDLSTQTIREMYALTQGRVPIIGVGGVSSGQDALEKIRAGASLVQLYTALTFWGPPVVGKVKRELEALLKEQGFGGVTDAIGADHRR

The term EC50 denotes the concentration that produces a half-maximal response. As to `C[C@H](Oc1cc(NC(=O)N2CCCCC2)c(F)cc1C(=O)Nc1c(F)cccc1Cl)C(F)(F)F` [Example 2, (S)-N-(4-((2-Chloro-6-fluorophenyl)carbamoyl)-2-fluoro-5-((1,1,1-trifluoropropan-2-yl)oxy)phenyl)piperidine-1-carboxamide], the EC50 is 12 nM in test [1] and 20 nM in test [2].
For the molecule `CCN(CCO)C(=O)Nc1cc(O[C@@H](C)C(F)(F)F)c(C(=O)Nc2c(F)cccc2Cl)cc1F` [Example 3, (S)-N-(2-Chloro-6-fluorophenyl)-4-(3-ethyl-3-(2-hydroxyethyl)ureido)-5-fluoro-2-((1,1,1-trifluoropropan-2-yl)oxy)benzamide], the EC50 in test [1] stood at 1.2 nM.
For `CCN(C(=O)Nc1cc(O[C@@H](C)C(F)(F)F)c(C(=O)Nc2c(F)cccc2Cl)cc1F)C(C)C` [Example 4, (S)-N-(2-Chloro-6-fluorophenyl)-4-(3-ethyl-3-isopropylureido)-5-fluoro-2-((1,1,1-trifluoropropan-2-yl)oxy)benzamide], the EC50 is 2.1 nM in test [1] and 7.3 nM in test [2].
Taken in the same sequence, the figures for `CCN(CCOC)C(=O)Nc1cc(O[C@@H](C)C(F)(F)F)c(C(=O)Nc2c(F)cccc2Cl)cc1F` [Example 6, (S)-N-(2-Chloro-6-fluorophenyl)-4-(3-ethyl-3-(2-methoxyethyl)ureido)-5-fluoro-2-((1,1,1-trifluoropropan-2-yl)oxy)benzamide] were 1.2 nM and 3.6 nM.
Turning to `CCN(CC(F)F)C(=O)Nc1cc(O[C@@H](C)C(F)(F)F)c(C(=O)Nc2c(F)cccc2Cl)cc1F` [Example 7, (S)-N-(2-chloro-6-fluorophenyl)-4-(3-(2,2-difluoroethyl)-3-ethylureido)-5-fluoro-2-((1,1,1-trifluoropropan-2-yl)oxy)benzamide], the EC50 in test [1] was 1.9 nM.
Consider `CC(C)NC(=O)Nc1cc(O[C@@H](C)C(F)(F)F)c(C(=O)Nc2c(F)cccc2Cl)cc1F` [Example 9, (S)-N-(2-Chloro-6-fluorophenyl)-5-fluoro-4-(3-isopropylureido)-2-((1,1,1-trifluoropropan-2-yl)oxy)benzamide], for which the results for the EC50 in test [1] and in test [2] were 89 nM and 490 nM, respectively.
The corresponding values for `C[C@H](Oc1cc(NC(=O)N2CCC(CO)C2)c(F)cc1C(=O)Nc1c(F)cccc1Cl)C(F)(F)F` (stereo partly drawn) [Example 13, N-(4-((2-Chloro-6-fluorophenyl)carbamoyl)-2-fluoro-5-(((S)-1,1,1-trifluoropropan-2-yl)oxy)phenyl)-3-(hydroxymethyl)pyrrolidine-1-carboxamide] are 220 nM and 950 nM.
In the case of `CCCN(C)C(=O)Nc1cc(O[C@@H](C)C(F)(F)F)c(C(=O)Nc2c(F)cccc2Cl)cc1F` [Example 14, (S)-N-(2-Chloro-6-fluorophenyl)-5-fluoro-4-(3-methyl-3-propylureido)-2-((1,1,1-trifluoropropan-2-yl)oxy)benzamide], the concentration giving a half-maximal response (EC50) in test [2] was 7.9 nM.
Turning to `CCCN(CC)C(=O)Nc1cc(O[C@@H](C)C(F)(F)F)c(C(=O)Nc2c(F)cccc2Cl)cc1F` [Example 15, (S)-N-(2-Chloro-6-fluorophenyl)-4-(3-ethyl-3-propylureido)-5-fluoro-2-((1,1,1-trifluoropropan-2-yl)oxy)benzamide], the EC50 in test [2] amounted to 20 nM.
`C[C@H](Oc1cc(NC(=O)N(C)CCF)c(F)cc1C(=O)Nc1c(F)cccc1Cl)C(F)(F)F` [Example 16, (S)-N-(2-chloro-6-fluorophenyl)-5-fluoro-4-(3-(2-fluoroethyl)-3-methylureido)-2-((1,1,1-trifluoropropan-2-yl)oxy)benzamide] registered an EC50 in test [2] of 4.7 nM.
Molecule `C[C@H](Oc1cc(NC(=O)N(C)CCC#N)c(F)cc1C(=O)Nc1c(F)cccc1Cl)C(F)(F)F` [Example 17, (S)-N-(2-Chloro-6-fluorophenyl)-4-(3-(2-cyanoethyl)-3-methylureido)-5-fluoro-2-((1,1,1-trifluoropropan-2-yl)oxy)benzamide] showed an EC50 in test [2] of 200 nM.
For `C[C@H](Oc1cc(NC(=O)N(C)CCO)c(F)cc1C(=O)Nc1c(F)cccc1Cl)C(F)(F)F` [Example 18, (S)-N-(2-Chloro-6-fluorophenyl)-5-fluoro-4-(3-(2-hydroxyethyl)-3-methylureido)-2-((1,1,1-trifluoropropan-2-yl)oxy)benzamide], the EC50 in test [1] amounted to 1.5 nM; in test [2], 2.6 nM.
`C[C@H](Oc1cc(NC(=O)N2CCC2)c(F)cc1C(=O)Nc1c(F)cccc1Cl)C(F)(F)F` [Example 20, (S)-N-(4-((2-Chloro-6-fluorophenyl)carbamoyl)-2-fluoro-5-((1,1,1-trifluoropropan-2-yl)oxy)phenyl)azetidine-1-carboxamide]: the EC50 in test [2] is 2.8 nM.
For `C[C@H](Oc1cc(NC(=O)N2CC(F)C2)c(F)cc1C(=O)Nc1c(F)cccc1Cl)C(F)(F)F` [Example 22, (S)-N-(4-((2-Chloro-6-fluorophenyl)carbamoyl)-2-fluoro-5-((1,1,1-trifluoropropan-2-yl)oxy)phenyl)-3-fluoroazetidine-1-carboxamide], the EC50 in test [2] was 7.2 nM.
Regarding `C[C@H](Oc1cc(NC(=O)N2CC(O)C2)c(F)cc1C(=O)Nc1c(F)cccc1Cl)C(F)(F)F` [Example 23, (S)-N-(4-((2-Chloro-6-fluorophenyl)carbamoyl)-2-fluoro-5-((1,1,1-trifluoropropan-2-yl)oxy)phenyl)-3-hydroxyazetidine-1-carboxamide], the EC50 came out at 270 nM in test [1] and 540 nM in test [2].
Turning to `C[C@H](Oc1cc(NC(=O)N2CC(CF)C2)c(F)cc1C(=O)Nc1c(F)cccc1Cl)C(F)(F)F` [Example 25, (S)-N-(4-((2-Chloro-6-fluorophenyl)carbamoyl)-2-fluoro-5-((1,1,1-trifluoropropan-2-yl)oxy)phenyl)-3-(fluoromethyl)azetidine-1-carboxamide], the values for the EC50 in test [1] and in test [2] were 110 nM and 210 nM, respectively.
For `C[C@H](Oc1cc(NC(=O)N(C)CC#N)c(F)cc1C(=O)Nc1c(F)cccc1Cl)C(F)(F)F` [Example 26, (S)-N-(2-Chloro-6-fluorophenyl)-4-(3-(cyanomethyl)-3-methylureido)-5-fluoro-2-((1,1,1-trifluoropropan-2-yl)oxy)benzamide], the EC50 in test [1] amounted to 170 nM; in test [2], 7970 nM.
Taken in the same sequence, the figures for `COC1CCN(C(=O)Nc2cc(O[C@@H](C)C(F)(F)F)c(C(=O)Nc3c(F)cccc3Cl)cc2F)C1` (stereo partly drawn) [Example 29, N-(4-((2-Chloro-6-fluorophenyl)carbamoyl)-2-fluoro-5-(((S)-1,1,1-trifluoropropan-2-yl)oxy)phenyl)-3-methoxypyrrolidine-1-carboxamide] were 40 nM and 85 nM.
On to `C[C@H](Oc1cc(NC(=O)N2CCC(O)C2)c(F)cc1C(=O)Nc1c(F)cccc1Cl)C(F)(F)F` (stereo partly drawn) [Example 30, N-(4-((2-Chloro-6-fluorophenyl)carbamoyl)-2-fluoro-5-(((S)-1,1,1-trifluoropropan-2-yl)oxy)phenyl)-3-hydroxypyrrolidine-1-carboxamide], for which the EC50 in test [1] is 57 nM; in test [2] it was 120 nM.
For `C[C@H](Oc1cc(NC(=O)N2CCC(F)C2)c(F)cc1C(=O)Nc1c(F)cccc1Cl)C(F)(F)F` (stereo partly drawn) [Example 32, N-(4-((2-Chloro-6-fluorophenyl)carbamoyl)-2-fluoro-5-(((S)-1,1,1-trifluoropropan-2-yl)oxy)phenyl)-3-fluoropyrrolidine-1-carboxamide], the EC50 in test [1] amounted to 5.8 nM; in test [2], 13 nM.
